{"source": "patent US4670419A", "about": "“Pharmaceutical composition and its rectal use” (Takeda Chemical Industries, Ltd., priority 1982, dated 1987)", "key": {"in vivo [1]": {"experiment": "in vivo", "conditions": "rat, 100 ug/kg, Concentration in Serum", "method": "In 0.1 ml of physiological saline are dissolved 100 μg of TAP-144 and 5 mg of α-cyclodextrin, and in the manner of Experimental Example 1, the 0.1 ml/kg equivalent of the solution is administered into the nasal cavity (the dose of TAP-144: 100 μg/kg)."}, "[2]": {"conditions": "rat, in vivo", "experimental": "(§1) SD-strain mature female rats (weighing about 270 g, 14 to 18 weeks old, in groups of 4 to 5 individuals) at diestrus as selected by the vaginal smear test covering a period of at least one week are anesthetized with pentobarbital and phenobarbital at 8-11 a.m., and a solution prepared by dissolving 500 μg of TAP-144 and 20 mg (2%), 50 mg (5%) or 100 mg (10%) of α-cyclodextrin in physiological saline in an amount to make 1 ml is administered into the vagina with about 12 mg of cotton soaked therewith at the dose level of 0.2 ml/kg (corresponding 100 μg/kg of TAP-144)."}, "in vivo [3]": {"experiment": "in vivo", "conditions": "female, SD, rat, iv, 100 ug/kg", "experimental": "as §1"}}}
{"smiles": "CCNC(=O)[C@@H]1CCCN1C(=O)[C@H](CCCNC(=N)N)NC(=O)[C@H](CC(C)C)NC(=O)[C@@H](CC(C)C)NC(=O)[C@H](Cc1ccc(O)cc1)NC(=O)[C@H](CO)NC(=O)[C@H](Cc1c[nH]c2ccccc12)NC(=O)[C@H](Cc1c[nH]cn1)NC(=O)[C@@H]1CCC(=O)N1", "note": "[TAP-144]", "values": [{"measurement": "level at 0.5 h", "setting": "in vivo [1]; SD (Sprague-Dawley), sc", "result": 44, "unit": "ng/mL"}, {"measurement": "level at 1 h", "setting": "in vivo [1]; SD (Sprague-Dawley), sc", "result": 40.2, "unit": "ng/mL"}, {"measurement": "level at 2 h", "setting": "in vivo [1]; SD (Sprague-Dawley), sc", "result": 24, "unit": "ng/mL"}, {"measurement": "level at 4 h", "setting": "in vivo [1]; SD (Sprague-Dawley), sc", "result": 6.7, "unit": "ng/mL"}, {"measurement": "level at 0.5 h", "setting": "in vivo [1]; SD, inhaled or intranasal", "result": 3.2, "unit": "ng/mL"}, {"measurement": "level at 4 h", "setting": "in vivo [1]; SD, inhaled or intranasal", "result": 3.9, "unit": "ng/mL"}, {"measurement": "promotion of vaginal absorption as compared with the control vaginal preparation", "setting": "[2]", "result": "about 6 times"}, {"measurement": "Concentration of TAP-144 in serum", "setting": "[2]; 100 ug/kg, 0.5 h", "result": 32.1, "unit": "ng/mL"}, {"measurement": "level at 5 min", "setting": "in vivo [3]", "result": 212, "unit": "ng/mL"}, {"measurement": "level at 10 min", "setting": "in vivo [3]", "result": 173, "unit": "ng/mL"}, {"measurement": "level at 0.5 h", "setting": "in vivo [3]", "result": 74.2, "unit": "ng/mL"}, {"measurement": "level at 1 h", "setting": "in vivo [3]", "result": 39.3, "unit": "ng/mL"}, {"measurement": "level at 2 h", "setting": "in vivo [3]", "result": 6.76, "unit": "ng/mL"}, {"measurement": "level at 4 h", "setting": "in vivo [3]", "result": 1.83, "unit": "ng/mL"}, {"measurement": "level at 6 h", "setting": "in vivo [3]", "result": "< 0.13", "unit": "ng/mL"}]}
